The source of these data is paper PMC9081821 (Steroids, 2022).

Experiment [1] has as its target T1, human GR (glucocorticoid receptor) (Homo sapiens, UniProt P04150).
T1 sequence (P04150 1-777): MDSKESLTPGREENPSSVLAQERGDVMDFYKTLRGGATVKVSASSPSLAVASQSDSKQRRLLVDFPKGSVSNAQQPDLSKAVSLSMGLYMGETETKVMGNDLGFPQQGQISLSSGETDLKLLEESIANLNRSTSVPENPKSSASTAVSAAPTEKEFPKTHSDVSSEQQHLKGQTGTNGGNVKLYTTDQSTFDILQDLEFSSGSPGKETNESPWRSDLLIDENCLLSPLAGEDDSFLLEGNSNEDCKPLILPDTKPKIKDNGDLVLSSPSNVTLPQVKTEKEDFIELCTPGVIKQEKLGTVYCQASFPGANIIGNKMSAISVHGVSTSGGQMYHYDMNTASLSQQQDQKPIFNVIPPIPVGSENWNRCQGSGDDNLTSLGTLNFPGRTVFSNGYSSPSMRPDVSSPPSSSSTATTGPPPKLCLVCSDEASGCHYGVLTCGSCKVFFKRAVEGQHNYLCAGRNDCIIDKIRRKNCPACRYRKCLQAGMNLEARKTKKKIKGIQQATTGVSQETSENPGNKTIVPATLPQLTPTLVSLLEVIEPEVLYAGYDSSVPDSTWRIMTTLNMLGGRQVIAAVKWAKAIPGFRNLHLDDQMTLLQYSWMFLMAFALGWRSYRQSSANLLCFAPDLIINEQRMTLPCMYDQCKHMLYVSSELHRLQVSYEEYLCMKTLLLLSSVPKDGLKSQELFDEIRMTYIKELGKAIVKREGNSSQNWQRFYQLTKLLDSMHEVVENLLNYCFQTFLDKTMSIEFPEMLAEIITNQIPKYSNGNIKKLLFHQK
Format: cell-based. Conditions: for IC50 (M) ± SEM: 20 nM [3H]-DEX, 3 h.

Experiment [2] deals with T1, human GR (glucocorticoid receptor). As to the kind of experiment: GRE-luciferase reporter transactivation in transfected COS-1 cells. Format: cell-based. On the technique in general: Reporter assays use an easily measured gene product as a stand-in for the process of interest.

Consider `C#C[C@]1(O)CC[C@H]2[C@@H]3CCC4=CC(=O)CC[C@@H]4[C@H]3CC[C@@]21CC` [levonorgestrel], for which the “IC50 (M) ± SEM” value in experiment [1] is reported as 1.35 ± 9.1 × 10^-7 M.
Consider `C#C[C@]1(O)CC[C@H]2[C@@H]3CCC4=CC(=O)CC[C@@H]4[C@H]3C(=C)C[C@@]21CC` [etonogestrel], for which, in experiment [1], the “IC50 (M) ± SEM” value was 1.15 ± 5.2 × 10^-8 M. The EC50 (commonly the concentration giving half of the maximal effect) in experiment [2] turned out to be 31.9 nM.
With `CC(=O)O[C@]1(C(C)=O)CC[C@H]2[C@@H]3C[C@H](C)C4=CC(=O)CC[C@]4(C)[C@H]3CC[C@@]21C` [medroxyprogesterone acetate], in experiment [1], the IC50 (in general, the midpoint of a concentration-inhibition curve) is 5.58 nM. In experiment [2], the EC50 was determined as 41.7 nM.
`C=C1C[C@H]2[C@@H]3CCC4=CC(=O)CC[C@@H]4[C@H]3CC[C@]2(C)[C@@]1(OC(C)=O)C(C)=O` [nestorone] returned a concentration for half-maximal inhibition (IC50) in experiment [1] of 57.3 nM. This molecule also registered a 50% effective concentration (EC50) in experiment [2] of 18.5 nM.
